According to US4861788A, “Antibacterial 1-normon-2-yl-heterocyclic compounds” (Beecham Group plc, priority 1983, dated 1989):
In brackets after ≈: the same amount, converted by molar mass. Where two headings read alike, the source gives them in different places.

What was measured:
[1] = test system: M. hyopneumoniae JF 435; test: MIC against Mycoplasma in vitro (Friis broth with agarose); format: cell-based; conditions: Mesomycoplasma hyopneumoniae, JF435, 144 h
[2] = test system: M. hyopneumoniae UCD 1; test: as above; format: cell-based; conditions: Mesomycoplasma hyopneumoniae, UCD1, 144 h
[3] = test system: M. hyopneumoniae TAM 6N; test: as above; format: cell-based; conditions: Mesomycoplasma hyopneumoniae, TAM6N, 144 h
[4] = test system: M. hyopneumoniae ATCC 25095; test: as above; format: cell-based; conditions: Mesomycoplasma hyopneumoniae, ATCC25095, 144 h
[5] = test system: M. hyorhinis ATCC 23234; test: as above; format: cell-based; conditions: Mesomycoplasma hyorhinis, ATCC23234, 144 h
[6] = test system: M. hyorhinis ATCC 25021; test: as above; format: cell-based; conditions: Mesomycoplasma hyorhinis, ATCC25021, 144 h; M. hyorhinis ATCC 25021; 6 days at 37° C; read-out: MIC
[7] = test system: M. hyosynoviae ATCC 25591; test: as above; format: cell-based; conditions: 144 h
[8] = test system: M. bovis NCTC 10131; test: microbe, parasite or virus in culture; format: cell-based; conditions: NCTC10131, 144 h
[9] = test system: M. bovigenitalium ATCC 14173; test: MIC against Mycoplasma in vitro (Friis broth with agarose); format: cell-based; conditions: 144 h
[10] = test system: M. dispar NCTC 10125; test: as above; format: cell-based; conditions: 144 h
[11] = test system: M. gallisepticum S6; test: as above; format: cell-based; conditions: Mycoplasmoides gallisepticum, 144 h; M. gallisepticum S6; 6 days at 37° C; read-out: MIC
[12] = test system: M. pneumoniae ATCC 15492; test: as above; format: cell-based; conditions: Mycoplasmoides pneumoniae, ATCC15492, 144 h; M. pneumoniae ATCC 15492; 6 days at 37° C; read-out: MIC
[13] = test system: E. coli NCTC 10418; test: MIC against veterinary bacteria in vitro (Diagnostic Sensitivity Test Agar); conditions: Escherichia coli, NCTC10418, 18 h
Procedure: (§1) The activity of the normonyl derivatives of the Examples against various veterinarily important bacteria, was assayed in vitro using two-fold serial dilutions in Diagnostic Sensitivity Test Agar inoculated with 10^4 organisms.

[14] = test system: E. coli E1; test: as above; conditions: Escherichia coli, E1, 18 h
Procedure: as §1

[15] = test system: S. dublin S7; test: as above; conditions: Salmonella enterica, S7, 18 h
Procedure: as §1

[16] = test system: S. typhimurium S18; test: as above; conditions: Salmonella enterica, 18 h
Procedure: as §1

[17] = test system: Bord. bronchiseptica B08; test: as above; conditions: Bordetella bronchiseptica, B08, 18 h
Procedure: as §1

[18] = test system: Bord. bronchiseptica B09; test: as above; conditions: Bordetella bronchiseptica, B09, 18 h
Procedure: as §1

[19] = test system: Past. multocida PA1; test: as above; conditions: Pasteurella multocida, PA1, 18 h
Procedure: as §1

[20] = test system: Past. haemolytica PA5; test: as above; conditions: Mannheimia haemolytica, PA5, 18 h
Procedure: as §1

[21] = test system: Erysipelothrix rhusiopathiae NCTC 8163; test: as above; conditions: NCTC8163, 18 h
Procedure: as §1

[22] = test system: Corynebacterium pyogenes CY1; test: as above; conditions: CY1, 18 h
Procedure: as §1

[23] = test system: Staph. aureus B4 (pen. resistant); test: as above; conditions: Staphylococcus aureus, 18 h
Procedure: as §1

[24] = test system: Staph. aureus 152 (pen. sens); test: as above; conditions: Staphylococcus aureus, 18 h
Procedure: as §1

[25] = test system: Staph. aureus Oxford; test: as above; conditions: Staphylococcus aureus, 18 h
Procedure: as §1

[26] = test system: Strep. suis (group D) SPS11; test: as above; conditions: Streptococcus suis, 18 h
Procedure: as §1

[27] = test system: Strep. uberis SPU1; test: as above; conditions: Streptococcus uberis, SPU1, 18 h
Procedure: as §1

[28] = test system: Strep. agalactiae SPA1; test: as above; conditions: Streptococcus agalactiae, SPA1, 18 h
Procedure: as §1

[29] = test system: M. hyopneumoniae MS 16; test: MIC against Mycoplasma in vitro (Friis broth with agarose); format: cell-based; conditions: Mesomycoplasma hyopneumoniae, MS16, 144 h
[30] = M. hyopneumoniae JF 435, 6 days at 37° C, read-out: MIC
[31] = M. hyopneumoniae TAM 6N, 6 days at 37° C, read-out: MIC
[32] = M. hyorhinis ATCC 23234, 6 days at 37° C, read-out: MIC
[33] = M. hyosynoviae ATCC 25591, 6 days at 37° C, read-out: MIC
[34] = M. bovigenitalium ATCC 14173, 6 days at 37° C, read-out: MIC
[35] = M. hyopneumoniae MS 16, 6 days at 37° C, read-out: MIC
[36] = M. hyopneumoniae ATCC 25095, 6 days at 37° C, read-out: MIC
[37] = M. dispar NCTC 10125, 6 days at 37° C, read-out: MIC

## CC(=Cc1nc(-c2ccc([N+](=O)[O-])cc2)no1)CC1OCC(CC2OC2C(C)C(C)O)C(O)C1O (stereo not drawn) [Example 16, 5-(1-Normon-2-yl)-3-(4-nitrophenyl)-1,2,4-oxadiazole]
[1]; [30]
  MIC: 1 µg/mL (≈ 2.04 µM)
[2]
  MIC: 0.5 µg/mL (≈ 1.02 µM)
[3]; [31]
  MIC: 1 µg/mL (≈ 2.04 µM)
[4]
  MIC: 0.1 µg/mL (≈ 0.204 µM)
[5]; [32]
  MIC: 0.25 µg/mL (≈ 0.511 µM)
[6]
  MIC: 0.25 µg/mL (≈ 0.511 µM)
[7]; [33]
  MIC: 5 µg/mL (≈ 10.2 µM)
[8]
  MIC: 0.25 µg/mL (≈ 0.511 µM)
[9]; [34]
  MIC: 0.5 µg/mL (≈ 1.02 µM)
[10]
  MIC: 0.1 µg/mL (≈ 0.204 µM)
[11]
  MIC: > 10 µg/mL
[12]
  MIC: > 10 µg/mL
[13]
  MIC: > 80 µg/mL
[14]
  MIC: > 80 µg/mL
[15]
  MIC: > 80 µg/mL
[16]
  MIC: > 80 µg/mL
[17]
  MIC: 80 µg/mL (≈ 163 µM)
[18]
  MIC: 10 µg/mL (≈ 20.4 µM)
[19]
  MIC: 5 µg/mL (≈ 10.2 µM)
[20]
  MIC: 20 µg/mL (≈ 40.9 µM)
[21]
  MIC: 10 µg/mL (≈ 20.4 µM)
[22]
  MIC: > 80 µg/mL
[23]
  MIC: 1.25 µg/mL (≈ 2.55 µM)
[24]
  MIC: 2.5 µg/mL (≈ 5.11 µM)
[25]
  MIC: 2.5 µg/mL (≈ 5.11 µM)
[26]
  MIC: 80 µg/mL (≈ 163 µM)
[27]
  MIC: 2.5 µg/mL (≈ 5.11 µM)
[28]
  MIC: 5 µg/mL (≈ 10.2 µM)

## CC(=Cc1nc(-c2ccccc2)no1)CC1OCC(CC2OC2C(C)C(C)O)C(O)C1O (stereo not drawn) [Example 15, 5-(1-Normon-2-yl)-3-phenyl-1,2,4-oxadiazole A]
[1]; [30]
  MIC: 10 µg/mL (≈ 22.5 µM)
[29]; [35]
  MIC: 5 µg/mL (≈ 11.2 µM)
[2]; M. hyopneumoniae UCD 1, 6 days at 37° C, read-out: MIC
  MIC: 10 µg/mL (≈ 22.5 µM)
[3]; [31]
  MIC: 10 µg/mL (≈ 22.5 µM)
[4]; [36]
  MIC: 5 µg/mL (≈ 11.2 µM)
[5]; [32]
  MIC: 5 µg/mL (≈ 11.2 µM)
[6]
  MIC: 2.5 µg/mL (≈ 5.62 µM)
[7]; [33]
  MIC: 10 µg/mL (≈ 22.5 µM)
[8]
  MIC: 0.1 µg/mL (≈ 0.225 µM)
[9]; [34]
  MIC: 0.5 µg/mL (≈ 1.12 µM)
[10]; [37]
  MIC: 2.5 µg/mL (≈ 5.62 µM)
[11]
  MIC: > 10 µg/mL
[12]
  MIC: > 10 µg/mL
[13]
  MIC: > 80 µg/mL
[14]
  MIC: > 80 µg/mL
[15]
  MIC: > 80 µg/mL
[16]
  MIC: > 80 µg/mL
[17]
  MIC: > 80 µg/mL
[18]
  MIC: 80 µg/mL (≈ 180 µM)
[19]
  MIC: 40 µg/mL (≈ 90 µM)
[20]
  MIC: > 80 µg/mL
[21]
  MIC: 40 µg/mL (≈ 90 µM)
[22]
  MIC: > 80 µg/mL
[23]
  MIC: 5 µg/mL (≈ 11.2 µM)
[24]
  MIC: 5 µg/mL (≈ 11.2 µM)
[25]
  MIC: 40 µg/mL (≈ 90 µM)
[26]
  MIC: > 80 µg/mL
[27]
  MIC: 2.5 µg/mL (≈ 5.62 µM)

## CC(=Cc1nnc(-c2cccs2)o1)CC1OCC(CC2OC2C(C)C(C)O)C(O)C1O (stereo not drawn) [Example 6, 2-(1-Normon-2-yl)-5-(2-thienyl)-1,3,4-oxadiazole A]
[1]
  MIC: 5 µg/mL (≈ 11.1 µM)
[29]
  MIC: 2.5 µg/mL (≈ 5.55 µM)
[2]
  MIC: 5 µg/mL (≈ 11.1 µM)
[3]
  MIC: 5 µg/mL (≈ 11.1 µM)
[4]
  MIC: 2.5 µg/mL (≈ 5.55 µM)
[5]
  MIC: 2.5 µg/mL (≈ 5.55 µM)
[6]
  MIC: 1 µg/mL (≈ 2.22 µM)
[7]
  MIC: 2.5 µg/mL (≈ 5.55 µM)
[8]
  MIC: 0.05 µg/mL (≈ 0.111 µM)
[9]; [34]
  MIC: 0.25 µg/mL (≈ 0.555 µM)
[10]; [37]
  MIC: 1 µg/mL (≈ 2.22 µM)
[11]
  MIC: > 10 µg/mL
[12]
  MIC: > 10 µg/mL
[13]
  MIC: > 80 µg/mL
[14]
  MIC: > 80 µg/mL
[15]
  MIC: > 80 µg/mL
[16]
  MIC: > 80 µg/mL
[17]
  MIC: > 80 µg/mL
[18]
  MIC: 80 µg/mL (≈ 178 µM)
[19]
  MIC: 2.5 µg/mL (≈ 5.55 µM)
[20]
  MIC: 20 µg/mL (≈ 44.4 µM)
[21]
  MIC: 80 µg/mL (≈ 178 µM)
[22]
  MIC: > 80 µg/mL
[23]
  MIC: 2.5 µg/mL (≈ 5.55 µM)
[24]
  MIC: 5 µg/mL (≈ 11.1 µM)
[25]
  MIC: 10 µg/mL (≈ 22.2 µM)
[26]
  MIC: 80 µg/mL (≈ 178 µM)
[27]
  MIC: 5 µg/mL (≈ 11.1 µM)
[28]
  MIC: 40 µg/mL (≈ 88.8 µM)

## CC(=Cc1noc(-c2ccccc2)n1)CC1OCC(CC2OC2C(C)C(C)O)C(O)C1O (stereo not drawn) [Example 17, 3-(1-Normon-2-yl)-5-phenyl-1,2,4-oxadiazole]
[1]; [30]
  MIC: 5 µg/mL (≈ 11.2 µM)
[29]; [35]
  MIC: 1 µg/mL (≈ 2.25 µM)
[2]
  MIC: 2.5 µg/mL (≈ 5.62 µM)
[3]; [31]
  MIC: 2.5 µg/mL (≈ 5.62 µM)
[4]; [36]
  MIC: 1 µg/mL (≈ 2.25 µM)
[5]; [32]
  MIC: 2.5 µg/mL (≈ 5.62 µM)
[6]
  MIC: 2.5 µg/mL (≈ 5.62 µM)
[7]; [33]
  MIC: 1 µg/mL (≈ 2.25 µM)
[8]
  MIC: 0.05 µg/mL (≈ 0.112 µM)
[9]
  MIC: 0.1 µg/mL (≈ 0.225 µM)
[10]; [37]
  MIC: 0.5 µg/mL (≈ 1.12 µM)
[11]
  MIC: 10 µg/mL (≈ 22.5 µM)
[12]
  MIC: > 10 µg/mL
[13]
  MIC: > 80 µg/mL
[14]
  MIC: > 80 µg/mL
[15]
  MIC: > 80 µg/mL
[16]
  MIC: > 80 µg/mL
[17]
  MIC: > 80 µg/mL
[18]
  MIC: 40 µg/mL (≈ 90 µM)
[19]
  MIC: 2.5 µg/mL (≈ 5.62 µM)
[20]
  MIC: 80 µg/mL (≈ 180 µM)
[21]
  MIC: 10 µg/mL (≈ 22.5 µM)
[22]
  MIC: > 80 µg/mL
[23]
  MIC: 1.25 µg/mL (≈ 2.81 µM)
[24]
  MIC: 1.25 µg/mL (≈ 2.81 µM)
[25]
  MIC: 2.5 µg/mL (≈ 5.62 µM)
[26]
  MIC: 20 µg/mL (≈ 45 µM)
[27]
  MIC: 0.625 µg/mL (≈ 1.41 µM)
[28]
  MIC: 5 µg/mL (≈ 11.2 µM)
